Measured values: US12410164B2, “Heterocyclic compounds and medical use thereof” (FONDAZIONE TELETHON, priority 2018, dated 2025)
Entries after “also recorded” stand apart in the source; their conditions may differ.

How the values were obtained:
F508del-CFTR [1] = target: T1, F508del-CFTR (Homo sapiens, UniProt P13569, DEL508-508); test: HS-YFP kinetic fluorescence (iodide quenching rate) assay in CFBE41o− cells; assay type: cell-based; set-up: expressed in transfected cells; host or cells: CFBE41o- cells with expression of F508del-CFTR and HS-YFP (generated as in Sondo et al. 2011); details: for AI (%) additivity index: Table 1, compound at 10 μM plus VX-809, (QRTOT − QRVX)/QRVX, HS-YFP assay; for structure-activity comparison of corrector potency/activity: relative to the analogue
T1 sequence (P13569 with tags, fused parts or gaps DEL508-508): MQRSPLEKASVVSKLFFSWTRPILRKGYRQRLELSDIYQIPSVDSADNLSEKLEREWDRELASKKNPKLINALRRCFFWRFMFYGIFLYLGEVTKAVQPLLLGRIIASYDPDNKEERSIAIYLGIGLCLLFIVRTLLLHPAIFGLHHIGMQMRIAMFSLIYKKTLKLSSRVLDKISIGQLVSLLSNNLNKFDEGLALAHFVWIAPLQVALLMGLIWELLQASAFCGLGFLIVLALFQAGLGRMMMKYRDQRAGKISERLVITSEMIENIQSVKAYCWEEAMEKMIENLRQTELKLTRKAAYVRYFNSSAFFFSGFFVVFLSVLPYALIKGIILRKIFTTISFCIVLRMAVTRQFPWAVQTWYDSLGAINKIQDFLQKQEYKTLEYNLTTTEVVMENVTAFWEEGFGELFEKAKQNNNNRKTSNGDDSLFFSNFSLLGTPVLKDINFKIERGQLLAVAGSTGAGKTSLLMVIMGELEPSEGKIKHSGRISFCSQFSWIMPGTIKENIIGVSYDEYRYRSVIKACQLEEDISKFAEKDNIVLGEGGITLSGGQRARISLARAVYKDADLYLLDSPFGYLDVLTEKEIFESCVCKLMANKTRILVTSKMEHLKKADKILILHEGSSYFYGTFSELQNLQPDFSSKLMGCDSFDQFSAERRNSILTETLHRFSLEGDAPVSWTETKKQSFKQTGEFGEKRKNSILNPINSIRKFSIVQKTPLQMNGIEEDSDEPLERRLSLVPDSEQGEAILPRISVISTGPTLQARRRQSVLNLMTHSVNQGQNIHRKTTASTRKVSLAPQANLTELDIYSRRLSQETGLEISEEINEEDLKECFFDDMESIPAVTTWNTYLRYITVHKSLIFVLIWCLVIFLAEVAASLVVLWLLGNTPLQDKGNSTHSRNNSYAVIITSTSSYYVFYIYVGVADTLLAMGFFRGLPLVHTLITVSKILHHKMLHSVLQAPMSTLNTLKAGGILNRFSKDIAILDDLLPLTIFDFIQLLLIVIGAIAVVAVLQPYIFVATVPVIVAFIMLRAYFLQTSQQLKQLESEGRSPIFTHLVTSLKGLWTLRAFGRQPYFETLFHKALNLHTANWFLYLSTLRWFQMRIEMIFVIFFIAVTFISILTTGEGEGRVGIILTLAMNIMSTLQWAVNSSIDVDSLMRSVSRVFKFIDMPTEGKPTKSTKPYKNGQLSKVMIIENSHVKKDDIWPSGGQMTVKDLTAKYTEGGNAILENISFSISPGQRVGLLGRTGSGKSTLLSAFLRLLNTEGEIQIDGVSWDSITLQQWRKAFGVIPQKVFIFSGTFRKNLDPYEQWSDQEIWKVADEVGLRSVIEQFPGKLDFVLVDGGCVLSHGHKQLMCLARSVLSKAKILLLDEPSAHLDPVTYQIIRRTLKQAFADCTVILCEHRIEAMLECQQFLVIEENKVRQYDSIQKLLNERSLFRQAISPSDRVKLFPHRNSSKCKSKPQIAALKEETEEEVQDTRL
Outline: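 CFBE41o- cells co-expressing F508del-CFTR and HS-YFP, treated 24 h with compound (0.1-0.2% DMSO), then stimulated with 20 μM forskolin plus 50 μM genistein. Fluorescence was read for 14 s during NaI injection. Background-subtracted, normalized traces were fitted exponentially to give maximum quenching rate (QR).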

F508del-CFTR [2] = target: T1, F508del-CFTR; test: Analysis of F508del-CFTR maturation by immunoblot in CFBE41o− cells; assay type: cell-based; set-up: expressed in transfected cells; host or cells: CFBE41o- cells with expression of F508del-CFTR and HS-YFP (generated as in Sondo et al. 2011); details: compound 10 μM plus VX-809 1 μM, 24 hr
Protocol: CFBE41o− cells were grown to confluence on 60-mm diameter dishes and lysed in RIPA buffer containing a complete protease inhibitor (Roche; cat. n. 11697498001). Cell lysates were centrifuged at 12000 rpm at 4° C. for 10 min. Supernatant protein concentration was calculated using the BCA assay (Euroclone; cat. n. EMP014500) following the manufacturer's instructions. Equal amounts of total protein content (30 μg) were separated onto 10% Criterion TGX Precast gels (Bio-rad laboratories Inc.; cat. n. 4561033), transferred to nitrocellulose membrane with Trans-Blot Turbo system (Bio-rad Laboratories Inc.) and analyzed by Western blotting. Primary antibody for CFTR was anti-CFTR 596 (University of North Carolina at Chapel Hill, and Cystic Fibrosis Foundation Therapeutics, see Cui L, et al. J. Mol Biol 2007, 365, 981-994) at 1:5000 dilution. As secondary antibody, anti-mouse HRP-conjugated Ab 97023 (Abcam) was used at 1:10000 dilution. Results were subsequently visualized by chemiluminescence using the SuperSignal West Femto Substrate (Thermo Scientific) and the Molecular Imager ChemiDoc XRS System.
To analyze the mechanism of action of the compounds of the invention, two types of experiments were carried out. In the first type of experiment, the electrophoretic mobility of F508del-CFTR protein was determined by immunoblot assay. This is a frequently used method to assess the effect of correctors at the protein level. In control conditions, F508del-CFTR migrates predominantly as a single band of 150 kDa called “band B”. This is the immature form of the protein residing in the endoplasmic reticulum. When the protein folding and stability is improved by correctors, an additional band appears at higher molecular weight (170 kDa). This is the so-called band C, which represents the mature form of the CFTR protein that has reached the Golgi compartment and acquired full glycosylation.

SMILES	AI (%) additivity index (F508del-CFTR [1]) [%]	F508del-CFTR activity (quenching rate) of combination with VX-809 (F508del-CFTR [1]; compound plus VX-809 1 μM, 24 h)	structure-activity comparison of corrector potency/activity (F508del-CFTR [1])	band C (mature form) expression versus VX-809 alone (F508del-CFTR [2])
CCOC(=O)c1c(Br)c2c(n1Cc1ccc(C)cc1)-c1[nH]c(=O)c(S(=O)(=O)c3ccccc3)cc1CC2 [PP008, Ethyl 7-(benzenesulfonyl)-3-bromo-1-[(4-methylphenyl)methyl]-8-oxo-4,5,8,9-tetrahydro-1H-pyrrolo[3,2-h]quinoline-2-carboxylate]	207	strong synergistic effect	important increase in potency; also recorded: more potent than the non-halogenated analogues	markedly enhances the abundance of the mature form of the protein; also recorded: marked increase in band C expression
CCOC(=O)c1c(Br)c2c(n1Cc1cccc(C)c1)-c1[nH]c(=O)c(S(=O)(=O)c3ccccc3)cc1CC2 [PP028, Ethyl 3-bromo 1-(3-methylbenzyl)-8-oxo-7-(phenylsulfonyl)-4,5,8,9-tetrahydro-1H-pyrrolo[3,2-h]quinoline-2-carboxylate]	278		important increase in efficiency in combination with the VX-809 and potency	markedly enhances the abundance of the mature form of the protein; also recorded: marked increase in band C expression
